Key:
Format in all cases: cell-based
[1] = target: T1, M1 muscarinic receptor (Homo sapiens, UniProt P11229); test: Functional mobilization of intracellular calcium (FLIPR) in CHO cells expressing M1; details: for EC50: CHO cells expressing M1, FLIPR calcium; for Emax: CHO, 100% = maximum response obtained with the Carbachol control, read-out: M1 Efficacy
T1 construct: expressed in transfected cells; host or cells: CHO (M1-CHO)
T1 sequence (P11229 1-460): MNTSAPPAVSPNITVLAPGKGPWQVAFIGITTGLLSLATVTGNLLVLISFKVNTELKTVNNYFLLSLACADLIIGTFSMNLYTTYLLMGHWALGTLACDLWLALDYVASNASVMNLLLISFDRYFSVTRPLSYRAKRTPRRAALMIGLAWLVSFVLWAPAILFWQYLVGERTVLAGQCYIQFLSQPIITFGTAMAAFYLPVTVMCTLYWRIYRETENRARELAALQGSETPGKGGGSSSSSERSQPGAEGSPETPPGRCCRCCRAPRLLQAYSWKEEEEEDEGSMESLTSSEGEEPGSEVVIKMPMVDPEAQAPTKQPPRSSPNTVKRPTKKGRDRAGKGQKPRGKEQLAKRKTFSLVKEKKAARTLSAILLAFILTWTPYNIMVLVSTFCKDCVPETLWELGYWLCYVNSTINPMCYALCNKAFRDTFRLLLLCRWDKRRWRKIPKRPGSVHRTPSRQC
Summary of the method: (§1)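 Recombinant CHO cells loaded with Fluo-3 AM or Calcium 3 dye in pH 7.4 buffer containing 1 mM probenecid, with 0.5% final DMSO. For agonism, compound is added directly. For inhibition, it is preincubated 15 min, or co-applied, before carbachol at EC80. FLIPR fluorescence (ex 488, em 540 nm) is recorded for 60 s.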

[2] = target: T2, M4 muscarinic receptor (Homo sapiens, UniProt P08173); test: Functional mobilization of intracellular calcium (FLIPR) in CHO cells expressing M4; details: for EC50: CHO cells expressing M4, FLIPR calcium; for Emax: CHO, 100% = maximum response obtained with the Carbachol control, read-out: M4 Efficacy
T2 construct: expressed in transfected cells; host or cells: CHO (M4-CHO)
T2 sequence (P08173 1-479): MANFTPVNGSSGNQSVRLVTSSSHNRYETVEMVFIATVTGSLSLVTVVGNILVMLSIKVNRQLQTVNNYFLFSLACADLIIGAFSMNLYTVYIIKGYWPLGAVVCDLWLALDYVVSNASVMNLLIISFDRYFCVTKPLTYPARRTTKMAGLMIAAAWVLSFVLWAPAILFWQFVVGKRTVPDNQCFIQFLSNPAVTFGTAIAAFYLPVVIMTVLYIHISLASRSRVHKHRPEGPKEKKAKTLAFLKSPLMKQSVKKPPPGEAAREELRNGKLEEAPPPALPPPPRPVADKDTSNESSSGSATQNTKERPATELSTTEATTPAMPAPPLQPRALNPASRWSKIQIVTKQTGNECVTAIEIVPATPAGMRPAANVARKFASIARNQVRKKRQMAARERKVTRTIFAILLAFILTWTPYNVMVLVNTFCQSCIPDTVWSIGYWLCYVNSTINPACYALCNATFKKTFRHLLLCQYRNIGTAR
Summary of the method: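 Calcium flux is read on FLIPR over 60 sec at 488/540 nm in muscarinic-receptor CHO lines. Antagonist mode adds carbachol at EC80 after 15 min compound preincubation or with simultaneous co-application. Agonist mode adds compound alone. Cells carry Fluo-3 or Calcium 3 dye in probenecid-containing pH 7.4 buffer, 0.5% DMSO final.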

[3] = target: T3, M3 muscarinic receptor (Homo sapiens, UniProt P20309); test: Functional mobilization of intracellular calcium (FLIPR) in CHO cells expressing M3; details: for EC50: CHO cells expressing M3, FLIPR calcium; for Emax: CHO, 100% = maximum response obtained with the Carbachol control, read-out: M3 Efficacy
T3 construct: expressed in transfected cells; host or cells: CHO (M3-CHO)
T3 sequence (P20309 whole entry): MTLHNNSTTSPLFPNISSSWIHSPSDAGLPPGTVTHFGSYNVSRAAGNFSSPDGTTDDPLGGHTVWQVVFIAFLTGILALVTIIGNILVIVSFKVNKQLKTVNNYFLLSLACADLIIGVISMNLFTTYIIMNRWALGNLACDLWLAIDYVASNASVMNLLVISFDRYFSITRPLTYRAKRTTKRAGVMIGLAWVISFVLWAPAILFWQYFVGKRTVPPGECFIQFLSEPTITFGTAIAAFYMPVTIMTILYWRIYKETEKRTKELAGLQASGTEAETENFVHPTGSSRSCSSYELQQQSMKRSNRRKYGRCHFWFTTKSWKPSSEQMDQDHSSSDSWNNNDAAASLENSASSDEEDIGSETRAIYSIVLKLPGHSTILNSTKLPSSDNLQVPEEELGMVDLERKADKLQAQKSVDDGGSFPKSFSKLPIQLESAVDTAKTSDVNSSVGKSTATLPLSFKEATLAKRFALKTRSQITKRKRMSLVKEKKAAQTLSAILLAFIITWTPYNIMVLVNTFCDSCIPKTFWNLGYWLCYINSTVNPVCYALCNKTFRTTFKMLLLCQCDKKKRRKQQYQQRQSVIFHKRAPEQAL
Summary of the method: as §1

[4] = target: T4, M2 muscarinic receptor (Homo sapiens, UniProt P08172); test: Functional mobilization of intracellular calcium (FLIPR) in CHO cells expressing M2; details: for EC50: CHO cells expressing M2, FLIPR calcium; for Emax: CHO, 100% = maximum response obtained with the Carbachol control, read-out: M2 Efficacy
T4 construct: expressed in transfected cells; host or cells: CHO (M2-CHO)
T4 sequence (P08172 1-466): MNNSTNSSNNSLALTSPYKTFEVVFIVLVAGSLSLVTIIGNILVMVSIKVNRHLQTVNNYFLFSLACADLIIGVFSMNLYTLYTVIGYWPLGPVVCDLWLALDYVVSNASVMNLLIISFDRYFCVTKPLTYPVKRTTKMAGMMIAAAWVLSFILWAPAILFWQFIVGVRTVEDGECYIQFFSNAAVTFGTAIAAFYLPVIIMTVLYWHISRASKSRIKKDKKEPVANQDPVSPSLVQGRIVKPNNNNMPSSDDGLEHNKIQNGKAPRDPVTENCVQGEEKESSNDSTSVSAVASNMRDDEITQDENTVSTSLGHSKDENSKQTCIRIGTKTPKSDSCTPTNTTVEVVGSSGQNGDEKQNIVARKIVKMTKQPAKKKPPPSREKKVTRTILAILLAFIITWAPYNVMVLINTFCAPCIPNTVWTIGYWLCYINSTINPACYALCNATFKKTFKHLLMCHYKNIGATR
Summary of the method: as §1

CCCN1CCC2(CC[C@H](NC(C)=O)c3ccccc32)CC1 [compound 95]
EC50 [1]: > 5 µM
Emax [1]: 25 to 100%
EC50 [2]: > 5 µM
Emax [2]: 25 to 100%
EC50 [3]: > 5 µM
Emax [3]: < 25%
EC50 [4]: > 5 µM
Emax [4]: < 25%

CC(=O)NCCC(=O)N[C@H]1CCC2(CCN(CCC(C)(C)C)CC2)c2cc(F)ccc21 [compound 96]
EC50 [1]: < 2 µM
Emax [1]: 25 to 100%
EC50 [2]: < 2 µM
Emax [2]: 25 to 100%
EC50 [3]: > 5 µM
Emax [3]: < 25%
EC50 [4]: < 2 µM
Emax [4]: 25 to 100%

CC(C)(C)CCN1CCC2(CCC(C#N)c3ccccc32)CC1 (stereo not shown) [compound 97]
EC50 [1]: < 2 µM
Emax [1]: 25 to 100%
EC50 [2]: < 2 µM
Emax [2]: 25 to 100%
EC50 [3]: > 5 µM
Emax [3]: < 25%
EC50 [4]: < 2 µM
Emax [4]: 25 to 100%

Cn1cnc(C(=O)N[C@H]2CCC3(CCN(CCC(C)(C)C)CC3)c3ccccc32)c1 [compound 98]
EC50 [1]: < 2 µM
Emax [1]: 25 to 100%
EC50 [2]: < 2 µM
Emax [2]: 25 to 100%
EC50 [3]: > 5 µM
Emax [3]: < 25%
EC50 [4]: > 5 µM
Emax [4]: < 25%

CCOCC(=O)N[C@@H]1CCC2(CCN(CCC(C)(C)C)CC2)c2ccccc21 [compound 99]
EC50 [1]: > 5 µM
Emax [1]: < 25%
EC50 [2]: < 2 µM
Emax [2]: 25 to 100%
EC50 [3]: > 5 µM
Emax [3]: < 25%
EC50 [4]: > 5 µM
Emax [4]: < 25%

CCN(C(=O)CCNC(C)=O)[C@@H]1CCC2(CCN(CCC(C)(C)C)CC2)c2ccccc21 [compound 100]
EC50 [1]: > 5 µM
Emax [1]: < 25%
EC50 [2]: < 2 µM
Emax [2]: 25 to 100%
EC50 [3]: > 5 µM
Emax [3]: < 25%
EC50 [4]: > 5 µM
Emax [4]: < 25%

CCN(C(=O)c1cncn1C)[C@@H]1CCC2(CCN(CCC(C)(C)C)CC2)c2ccccc21 [compound 101]
EC50 [1]: < 2 µM
Emax [1]: 25 to 100%
EC50 [2]: 2 to 5 µM
Emax [2]: 25 to 100%
EC50 [3]: > 5 µM
Emax [3]: < 25%
EC50 [4]: > 5 µM
Emax [4]: < 25%

CC(C)(C)CCN1CCC2(CC[C@H](N3C(=O)CCC3=O)c3ccccc32)CC1 [compound 102]
EC50 [1]: 2 to 5 µM
Emax [1]: 25 to 100%
EC50 [2]: < 2 µM
Emax [2]: 25 to 100%
EC50 [3]: > 5 µM
Emax [3]: < 25%
EC50 [4]: > 5 µM
Emax [4]: < 25%

CC(C)(C)CCN1CCC2(CC[C@H](NC(=O)C3CCC(=O)N3)c3ccc(F)cc32)CC1 (stereo partly shown) [compound 103]
EC50 [1]: < 2 µM
Emax [1]: 25 to 100%
EC50 [2]: < 2 µM
Emax [2]: 25 to 100%
EC50 [3]: > 5 µM
Emax [3]: < 25%
EC50 [4]: < 2 µM
Emax [4]: < 25%

CC(=O)N[C@H]1CCC2(CCN(CC(C)C)CC2)c2ccccc21 [compound 104]
EC50 [1]: 2 to 5 µM
Emax [1]: 25 to 100%
EC50 [2]: 2 to 5 µM
Emax [2]: 25 to 100%
EC50 [3]: > 5 µM
Emax [3]: < 25%
EC50 [4]: > 5 µM
Emax [4]: 25 to 100%

COCCC(=O)N[C@@H]1CCC2(CCN(CCC(C)(C)C)CC2)c2ccccc21 [compound 105]
EC50 [1]: 2 to 5 µM
Emax [1]: < 25%
EC50 [2]: < 2 µM
Emax [2]: 25 to 100%
EC50 [3]: > 5 µM
Emax [3]: < 25%
EC50 [4]: > 5 µM
Emax [4]: < 25%

C[C@@H](C(=O)N[C@H]1CCC2(CCN(CCC(C)(C)C)CC2)c2cc(F)ccc21)N1CCCC1=O [compound 106]
EC50 [1]: < 2 µM
Emax [1]: 25 to 100%
EC50 [2]: < 2 µM
Emax [2]: 25 to 100%
EC50 [3]: > 5 µM
Emax [3]: < 25%
EC50 [4]: < 2 µM
Emax [4]: 25 to 100%

CC(=O)N1CCC[C@@H]1C(=O)N[C@@H]1CCC2(CCN(CCC(C)(C)C)CC2)c2ccccc21 [compound 107]
EC50 [1]: 2 to 5 µM
Emax [1]: 25 to 100%
EC50 [2]: < 2 µM
Emax [2]: 25 to 100%
EC50 [3]: > 5 µM
Emax [3]: < 25%
EC50 [4]: 2 to 5 µM
Emax [4]: < 25%

CC(C)(C)CCN1CCC2(CC[C@H](NC(=O)c3cccnc3)c3ccccc32)CC1 [compound 108]
EC50 [1]: < 2 µM
Emax [1]: 25 to 100%
EC50 [2]: < 2 µM
Emax [2]: 25 to 100%
EC50 [3]: > 5 µM
Emax [3]: < 25%
EC50 [4]: < 2 µM
Emax [4]: < 25%

C[C@H](C(=O)N[C@H]1CCC2(CCN(CCC(C)(C)C)CC2)c2ccccc21)N1CCCC1=O [compound 109]
EC50 [1]: < 2 µM
Emax [1]: 25 to 100%
EC50 [2]: < 2 µM
Emax [2]: 25 to 100%
EC50 [3]: > 5 µM
Emax [3]: < 25%
EC50 [4]: > 5 µM
Emax [4]: < 25%

CCN(C(=O)CCC(F)(F)F)[C@H]1CCC2(CCN(CCC(C)(C)C)CC2)c2ccccc21 [compound 110]
EC50 [1]: > 5 µM
Emax [1]: 25 to 100%
EC50 [2]: < 2 µM
Emax [2]: 25 to 100%
EC50 [3]: > 5 µM
Emax [3]: < 25%
EC50 [4]: > 5 µM
Emax [4]: < 25%

CCN(C(=O)c1cccnc1)[C@@H]1CCC2(CCN(CCC(C)(C)C)CC2)c2ccccc21 [compound 111]
EC50 [1]: > 5 µM
Emax [1]: < 25%
EC50 [2]: < 2 µM
Emax [2]: 25 to 100%
EC50 [3]: > 5 µM
Emax [3]: < 25%
EC50 [4]: > 5 µM
Emax [4]: < 25%

C[C@H](C(=O)N[C@@H]1CCC2(CCN(CCC(C)(C)C)CC2)c2ccccc21)N1CCCCC1=O [compound 113]
EC50 [1]: > 5 µM
Emax [1]: < 25%
EC50 [2]: < 2 µM
Emax [2]: 25 to 100%
EC50 [3]: > 5 µM
Emax [3]: < 25%
EC50 [4]: > 5 µM
Emax [4]: < 25%

CCn1cc(C(=O)N[C@H]2CCC3(CCN(CCC(C)(C)C)CC3)c3ccccc32)cn1 [compound 115]
EC50 [1]: < 2 µM
Emax [1]: 25 to 100%
EC50 [2]: < 2 µM
Emax [2]: 25 to 100%
EC50 [3]: > 5 µM
Emax [3]: < 25%
EC50 [4]: < 2 µM
Emax [4]: 25 to 100%

CCN(C(=O)[C@@H](C)OC)[C@H]1CCC2(CCN(CCC(C)(C)C)CC2)c2ccccc21 [compound 116]
EC50 [1]: > 5 µM
Emax [1]: 25 to 100%
EC50 [2]: < 2 µM
Emax [2]: 25 to 100%
EC50 [3]: > 5 µM
Emax [3]: < 25%
EC50 [4]: > 5 µM
Emax [4]: < 25%

CC(C)(C)CCN1CCC2(CC1)CC(F)(F)C(=O)c1ccccc12 [compound 117]
EC50 [1]: < 2 µM
Emax [1]: 25 to 100%
EC50 [2]: < 2 µM
Emax [2]: 25 to 100%
EC50 [3]: > 5 µM
Emax [3]: < 25%
EC50 [4]: < 2 µM
Emax [4]: 25 to 100%

Cn1cncc1C(=O)N[C@@H]1CCC2(CCN(CCC(C)(C)C)CC2)c2ccccc21 [compound 118]
EC50 [1]: 2 to 5 µM
Emax [1]: 25 to 100%
EC50 [2]: < 2 µM
Emax [2]: 25 to 100%
EC50 [3]: > 5 µM
Emax [3]: < 25%
EC50 [4]: > 5 µM
Emax [4]: < 25%

CC(C)(C)CCN1CCC2(CC[C@H](NC(=O)C3CC3)c3ccc(F)cc32)CC1 [compound 119]
EC50 [1]: < 2 µM
Emax [1]: 25 to 100%
EC50 [2]: < 2 µM
Emax [2]: 25 to 100%
EC50 [3]: > 5 µM
Emax [3]: < 25%
EC50 [4]: < 2 µM
Emax [4]: 25 to 100%
